Laboratory results reported in patent publication US12129237B2, “Substituted diaminocarboxamide and diaminocarbonitrile pyrimidines, compositions thereof, and methods of treatment therewith” (SIGNAL PHARMACEUTICALS, LLC, priority 2011, dated 2024).

The compounds below were run against T1, JNK1 (Homo sapiens, UniProt P45983) (assay: JNK1 biochemical assays (one or more of: time resolved fluorescence, Z'-LYTE Cascade, radioactive)). Conditions: Table 2; JNK1 IC50 activity level; read-out: Act. Level.
T1 construct: purchased Carna Biosciences
T1 sequence (P45983 whole entry): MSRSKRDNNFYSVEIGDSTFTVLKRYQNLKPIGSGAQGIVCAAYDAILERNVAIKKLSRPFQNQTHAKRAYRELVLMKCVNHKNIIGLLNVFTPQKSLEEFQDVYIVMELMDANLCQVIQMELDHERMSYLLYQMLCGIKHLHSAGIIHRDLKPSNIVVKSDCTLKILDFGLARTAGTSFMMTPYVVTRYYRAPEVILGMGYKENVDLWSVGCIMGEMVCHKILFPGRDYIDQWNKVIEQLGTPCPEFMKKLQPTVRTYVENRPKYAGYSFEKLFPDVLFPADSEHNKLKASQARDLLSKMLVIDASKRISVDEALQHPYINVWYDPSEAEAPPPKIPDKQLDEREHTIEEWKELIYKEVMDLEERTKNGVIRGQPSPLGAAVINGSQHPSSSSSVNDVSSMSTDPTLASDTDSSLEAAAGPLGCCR
In the case of `COc1cc(Nc2ncc(C(N)=O)c(Nc3ccccc3)n2)cc(OC)c1OC` [Example B-19, 4-(phenylamino)-2-(3,4,5-trimethoxyphenylamino)pyrimidine-5-carboxamide], the IC50 is reported as less than 200 nM. `NC(=O)c1cnc(NCc2ccc(F)cc2F)nc1Nc1ccccc1` [Example B-57, 2-(2,4-difluorobenzylamino)-4-(phenylamino)pyrimidine-5-carboxamide] was tested, and the IC50 was 200 to 800 nM. Work on `CC1CCC(Nc2ncc(C(N)=O)c(Nc3ccccc3)n2)CC1` (centres unmarked) [Example B-47, 2-(4-methylcyclohexylamino)-4-(phenylamino)pyrimidine-5-carboxamide] yielded an IC50 of less than 200 nM.

Same assay, conditions: Table 3; JNK1 IC50 activity level; read-out: Act. Level
`N#Cc1cnc(N[C@H]2CC[C@H](O)CC2)nc1N[C@@H]1CCCC[C@@H]1O` [Example C-31, 4-((1R,2S)-2-hydroxycyclohexylamino)-2-((1r,4R)-4-hydroxycyclohexylamino) pyrimidine-5-carbonitrile] showed an IC50 of 200 to 800 nM. For `C[C@@H]1CC[C@@H](Nc2nc(N[C@H]3CC[C@H](C(=O)N(C)C)CC3)ncc2C#N)C[C@H]1O` [Example C-47, (1R,4r)-4-(5-cyano-4-((1R,3R,4R)-3-hydroxy-4-methylcyclohexylamino)pyrimidin-2-ylamino)-N,N-dimethylcyclohexanecarboxamid], the IC50 was less than 200 nM. With `C[C@]1(O)CCC[C@@H](Nc2nc(N[C@H]3CC[C@H](OC(F)F)CC3)ncc2C#N)C1` [Example C-44, 2-((1r,4R)-4-(difluoromethoxy)cyclohexylamino)-4-((1R,3S)-3-hydroxy-3-methylcyclohexylamino) pyrimidine-5-carbonitrile] the IC50 was less than 200 nM.

Same assay, conditions: one or more of the JNK1 biochemical assays; read-out: Act. Level (JNK1 IC50 activity level)
Work on `CC1CCC1Nc1nc(N[C@H]2CC[C@H](O)CC2)ncc1C(N)=O` (some centres unmarked) [Example 247, 2-((1r,4r)-4-hydroxycyclohexylamino)-4-(2-methylcyclobutylamino)pyrimidine-5-carboxamide] yielded an IC50 of less than 200 nM. `CCC(C)(C)Nc1nc(N[C@H]2CC[C@H](OC3CC3)CC2)ncc1C(N)=O` [Example 382, 2-((1r,4r)-4-cyclopropoxycyclohexylamino)-4-(tert-pentylamino)pyrimidine-5-carboxamide] gave an IC50 of less than 200 nM. For `CO[C@H]1CC[C@](C)(Nc2ncc(C(N)=O)c(N[C@@H]3CCC[C@H](O)C3)n2)CC1` [Example 216, 4-((1R,3S)-3-hydroxycyclohexylamino)-2-((1r,4R)-4-methoxy-1-methylcyclohexylamino)pyrimidine-5-carboxamide], the IC50 was less than 200 nM. Compound `CC(C)(C)Nc1nc(NC2CCC(F)(F)CC2)ncc1C(N)=O` [Example 318, 4-(tert-butylamino)-2-(4,4-difluorocyclohexylamino)pyrimidine-5-carboxamide] has an IC50 of less than 200 nM. Work on `NC(=O)c1cnc(N[C@H]2CC[C@H](OC(F)F)CC2)nc1NC12CC(C1)C2` [Example 420, 4-(bicyclo[1.1.1]pentan-1-ylamino)-2-((1r,4r)-4-(difluoromethoxy)cyclohexylamino)pyrimidine-5-carboxamide] yielded an IC50 of less than 200 nM. Compound `CO[C@H]1CC[C@H](Nc2ncc(C(N)=O)c(N[C@H]3C[C@@H](C)C3)n2)CC1` [Example 337, 2-((1r,4r)-4-methoxycyclohexylamino)-4-((1s,3s)-3-methycyclobutylamino)pyrimidine-5-carboxamide] has an IC50 of less than 200 nM. Work on `CC1(C)CCC(Nc2nc(NC34CC(C3)C4)ncc2C(N)=O)CC1O` (centres unmarked) [Example 427, 2-(bicyclo[1.1.1]pentan-1-ylamino)-4-(3-hydroxy-4,4-dimethylcyclohexylamino)pyrimidine-5-carboxamide] yielded an IC50 of 200 to 800 nM. `CCO[C@H]1CC[C@H](Nc2ncc(C(N)=O)c(NC3(CC)CCC3)n2)CC1` [Example 360, 2-((1r,4r)-4-ethoxycyclohexylamino)-4-(1-ethylcyclobutylamino)pyrimidine-5-carboxamide] gave an IC50 of less than 200 nM. In the case of `CCO[C@H]1CC[C@H](Nc2ncc(C(N)=O)c(NC34CCC(C3)C4)n2)CC1` [Example 462, 4-(bicyclo[2.1.1]hexan-1-ylamino)-2-((1r,4r)-4-ethoxycyclohexylamino)pyrimidine-5-carboxamide], the IC50 is reported as less than 200 nM. With `NC(=O)c1cnc(N[C@H]2CC[C@H](O)CC2)nc1NC1(C2CC2)CC1` [Example 355, 4-(bi(cycloprop)ylamino)-2-((1r,4r)-4-hydroxycyclohexylamino)pyrimidine-5-carboxamide] the IC50 was less than 200 nM. `CC[C@H](C)Nc1ncc(C(N)=O)c(N[C@@H]2CCC[C@H](O)C2)n1` [Example 496, 2-(sec-butylamino)-4-((1R,3S)-3-hydroxycyclohexylamino)pyrimidine-5-carboxamide] showed an IC50 of less than 200 nM. In the case of `CC(C)(C)Nc1nc(N[C@H]2CC[C@@](C)(O)CC2)ncc1C(N)=O` [Example 371, 4-(tert-butylamino)-2-((1s,4s)-4-hydroxy-4-methylcyclohexylamino)pyrimidine-5-carboxamide], the IC50 is reported as less than 200 nM. For `C[C@@H](Nc1nc(N[C@H]2CC[C@H](C(=O)N(C)C)CC2)ncc1C(N)=O)C1CC1` [Example 425, 4-((R)-1-cyclopropylethylamino)-2-((1r,4R)-4-(dimethylcarbamoyl)cyclohexylamino)pyrimidine-5-carboxamide], the IC50 was less than 200 nM. `CC(C)(Nc1nc(N[C@H]2CCCOC2)ncc1C(N)=O)C1CC1` [Example 468, (S)-4-(2-cyclopropylpropan-2-ylamino)-2-(tetrahydro-2H-pyran-3-ylamino)pyrimidine-5-carboxamide] showed an IC50 of less than 200 nM. In the case of `C[C@@H]1CC[C@@H](Nc2nc(NC3COC3)ncc2C(N)=O)C[C@H]1O` [Example 312, 4-((1R,3R,4R)-3-hydroxy-4-methylcyclohexylamino)-2-(oxetan-3-ylamino)pyrimidine-5-carboxamide], the IC50 is reported as less than 200 nM. `CN(C)C(=O)[C@H]1CC[C@H](Nc2ncc(C(N)=O)c(NC(C)(C)C)n2)CC1` [Example 308, 4-(tert-butylamino)-2-((1r,4r)-4-(dimethylcarbamoyl)cyclohexylamino)pyrimidine-5-carboxamide] showed an IC50 of less than 200 nM. In the case of `NC(=O)c1cnc(N[C@H]2CC[C@H](OC(F)F)CC2)nc1N[C@@H]1CCC[C@H]1CO` [Example 329, 2-((1r,4R)-4-(difluoromethoxy)cyclohexylamino)-4-((1R,2R)-2-(hydroxymethyl)cyclopentylamino)pyrimidine-5-carboxamide], the IC50 is reported as less than 200 nM. `CC(C)(Nc1nc(N[C@H]2CCC[C@@H](O)C2)ncc1C(N)=O)C1CC1` [Example 457, 4-(2-cyclopropylpropan-2-ylamino)-2-((1S,3R)-3-hydroxycyclohexylamino)pyrimidine-5-carboxamide] showed an IC50 of less than 200 nM. In the case of `CCO[C@H]1CC[C@H](Nc2ncc(C(N)=O)c(N[C@@H](C)C3CCC3)n2)CC1` [Example 293, 4-((S)-1-cyclobutylethylamino)-2-((1r,4S)-4-ethoxycyclohexylamino)pyrimidine-5-carboxamide], the IC50 is reported as less than 200 nM. `NC(=O)c1cnc(N[C@H]2CC[C@H](OC(F)F)CC2)nc1NC1CCC1` [Example 436, 4-(cyclobutylamino)-2-((1r,4r)-4-(difluoromethoxy)cyclohexylamino)pyrimidine-5-carboxamide] showed an IC50 of less than 200 nM.

Same assay, conditions: tested in one or more of the JNK1 biochemical assays; read-out: Act. Level (JNK1 biochemical assay IC50 activity level)
For `CCO[C@H]1CC[C@H](Nc2ncc(C(N)=O)c(NC[C@H](C)O)n2)CC1` [Example A-102, 2-((1r,4S)-4-ethoxycyclohexylamino)-4-((S)-2-hydroxypropylamino)pyrimidine-5-carboxamide], the IC50 was less than 200 nM. With `NC(=O)c1cnc(NC2CCCCC2)nc1NC1CCCC1` [Example A-149, 2-(cyclohexylamino)-4-(cyclopentylamino)pyrimidine-5-carboxamide] the IC50 was less than 200 nM. With `NC(=O)c1cnc(N[C@H]2CC[C@H](O)CC2)nc1N[C@@H]1CCCOC1` [Example A-193, 2-((1r,4R)-4-hydroxycyclohexylamino)-4-((R)-tetrahydro-2H-pyran-3-ylamino)pyrimidine-5-carboxamide] the IC50 was less than 200 nM. Work on `NC(=O)c1cnc(NC2CCOCC2)nc1N[C@@H]1CCC[C@H]1O` [Example A-7, 4-((1R,2R)-2-hydroxycyclopentylamino)-2-(tetrahydro-2H-pyran-4-ylamino)pyrimidine-5-carboxamide] yielded an IC50 of less than 200 nM. For `CCNC(=O)[C@H]1CC[C@@H](Nc2nc(NC3CC3)ncc2C(N)=O)CC1` [Example A-137, 2-(cyclopropylamino)-4-((1s,4s)-4-(ethylcarbamoyl)cyclohexylamino)pyrimidine-5-carboxamide], the IC50 was 1000 to 10000 nM. `CC[C@@H](C)Nc1nc(N[C@H]2CC[C@H](O)CC2)ncc1C(N)=O` [Example A-189, 4-(sec-butylamino)-2-((1r,4R)-4-hydroxycyclohexylamino)pyrimidine-5-carboxamide] showed an IC50 of less than 200 nM. With `CC(C)CC(=O)N1CCC(Nc2ncc(C(N)=O)c(N[C@H]3CC[C@@H](O)C3)n2)CC1` [Example A-87, 4-((1S,3R)-3-hydroxycyclopentylamino)-2-(1-(3-methylbutanoyl)piperidin-4-ylamino)pyrimidine-5-carboxamide] the IC50 was less than 200 nM. Compound `CO[C@H]1CC[C@H](Nc2ncc(C(N)=O)c(NC3COCC(O)C3)n2)CC1` (some centres unmarked) [Example A-13, 4-(5-hydroxytetrahydro-2H-pyran-3-ylamino)-2-((1r,4r)-4-methoxycyclohexylamino)pyrimidine-5-carboxamide] has an IC50 of less than 200 nM. With `CO[C@H]1CC[C@H](Nc2ncc(C(N)=O)c(N[C@H]3CC[C@@H](O)CC3)n2)CC1` [Example A-101, 4-((1s,4s)-4-hydroxycyclohexylamino)-2-((1r,4r)-4-methoxycyclohexylamino)pyrimidine-5-carboxamide] the IC50 was less than 200 nM. `CO[C@H]1CC[C@H](Nc2ncc(C(N)=O)c(NC3CCOCC3)n2)CC1` [Example A-55, 2-((1r,4r)-4-methoxycyclohexylamino)-4-(tetrahydro-2H-pyran-4-ylamino)pyrimidine-5-carboxamide] gave an IC50 of 200 to 800 nM. `CO[C@H]1CCC[C@H](Nc2ncc(C(N)=O)c(N[C@@H]3CCC[C@H](O)C3)n2)CC1` [Example A-200, 4-((1R,3S)-3-hydroxycyclohexylamino)-2-((1S,4S)-4-methoxycycloheptylamino)pyrimidine-5-carboxamide] was tested, and the IC50 was less than 200 nM. `NC(=O)c1cnc(NC2CCCC2)nc1N[C@H]1CC[C@@H](O)CC1` [Example A-128, 2-(cyclopentylamino)-4-((1s,4s)-4-hydroxycyclohexylamino)pyrimidine-5-carboxamide] gave an IC50 of less than 200 nM.
